Assay results reported in patent publication US11702409B2, “Pyrazolyl derivatives useful as anti-cancer agents” (NOVARTIS AG, priority 2019, dated 2023).

target: KRasG12C (M1-K169, biotinylated on the N-terminus) (Homo sapiens (Human), UniProt P01116, G12C); assay: Covalent competition assay (scintillation proximity assay, competition with radiolabeled covalent probe Compound B); format: binding; conditions: in vitro KRASG12C activity; 10 nM KRasG12C:GDP, 25 nM radio-ligand and 475 nM unlabelled ligand, incubated 2 hours; read-out: Covalent Competition Assay IC50
Protocol: The cells were lysed by 4 passages through an Avestin Emulsiflex at about 20000 psi and insoluble debris removed by centrifugation and filtered through a 0.45 μm Durapore membrane (Millipore). […] The protein in the flow through was subjected to a final polishing step on a HiLoad 16/60 Superdex 200 prep grade size-exclusion column pre-equilibrated with SEC-buffer (20 mM HEPES pH 7.4, 150 mM NaCl, 5 mM MgCl2, 1 μM GDP).
A scintillation proximity assay (SPA) was used to determine the potency of the compounds. This assay measures the ability of the test compound to compete with the radiolabeled covalent probe for binding to and covalently modify KRASG12C.
A serial dilution of the compounds to be tested is mixed with a fixed concentration of the radiolabeled covalent probe before incubation with KRASG12C:GDP as described below.
The reaction was started by addition of KRasG12C (M1-K169, biotinylated on the N-terminus) to the compounds and incubated for 2 hours with continuous agitation allowing for full modification of KRasG12C with probe or test compounds. […] The assay buffer contained 20 mM Tris-HCl pH 7.5 (Invitrogen), 150 mM NaCl (Sigma Aldrich), 0.1 mM MgCl2 (Sigma Aldrich), and 0.01% Tween-20 (Sigma Aldrich).
Evaluation was carried out using assay data analysis software (such as the standard Novartis in-house Helios software application, Novartis Institutes for BioMedical Research, unpublished) using the methods described in Formenko et al., Robust Regression for high-throughput screening.
Evaluation can also be carried out using commercially available software which is designed to derive IC50 values using 4-parameter fits (e.g. GraphPad Prism, XL fit).

| Compound | IC50 [nM] |
| --- | --- |
| C=CC(=O)N1CC2(CC(n3nc(-c4ccc5c(cnn5C)c4)c(-c4c(Cl)c(C)cc5[nH]ncc45)c3C)C2)C1 (single isomer, unassigned) [Example 1a] | 17 |
| C=CC(=O)N1CC2(CC(n3nc(C4=CCC(F)(F)CC4)c(-c4c(Cl)c(C)cc5[nH]ncc45)c3C)C2)C1 (single isomer, unassigned) [Example 3a] | 465 |
| C=CC(=O)N1CC2(CC(n3nc(C4=CCC(F)(F)CC4)c(-c4c(Cl)c(C)cc5[nH]ncc45)c3C)C2)C1 (single isomer, unassigned) [Example 3b] | 1200 |
| C=CC(=O)N1CC2(CC(n3nc(-c4ccc(CN5CCCS5(=O)=O)cc4)c(-c4c(Cl)c(C)cc5[nH]ncc45)c3C)C2)C1 (single isomer, unassigned) [Example 5a] | 43 |
| C=CC(=O)N1CC2(CC(n3nc(-c4ccc(CN5CCCS5(=O)=O)cc4)c(-c4c(Cl)c(C)cc5[nH]ncc45)c3C)C2)C1 (single isomer, unassigned) [Example 5b] | 15000 |
| C=CC(=O)N1CC2(CC(n3nc(-c4ccc(-n5nccc5N)nc4)c(-c4c(Cl)c(C)cc5[nH]ncc45)c3C)C2)C1 (single isomer, unassigned) [Example 7a] | 162 |
| C=CC(=O)N1CC2(CC(n3nc(-c4ccc(-n5nccc5N)nc4)c(-c4c(Cl)c(C)cc5[nH]ncc45)c3C)C2)C1 (single isomer, unassigned) [Example 7b] | > 5000 |
| C=CC(=O)N1CC2(CC(n3nc(-c4ccnc(C#N)c4)c(-c4c(Cl)c(C)cc5[nH]ncc45)c3C)C2)C1 (single isomer, unassigned) [Example 9a] | 743 |
| C=CC(=O)N1CC2(CC(n3nc(-c4ccnc(C#N)c4)c(-c4c(Cl)c(C)cc5[nH]ncc45)c3C)C2)C1 (single isomer, unassigned) [Example 9b] | > 50000 |
| C=CC(=O)N1CC2(CC(n3nc(-c4cncc(C#N)c4)c(-c4c(Cl)c(C)cc5[nH]ncc45)c3C)C2)C1 (single isomer, unassigned) [Example 10a] | 1200 |
| C=CC(=O)N1CC2(CC(n3nc(-c4cncc(C#N)c4)c(-c4c(Cl)c(C)cc5[nH]ncc45)c3C)C2)C1 (single isomer, unassigned) [Example 10b] | > 50000 |
| C=CC(=O)N1CC2(CC(n3nc(-c4ccc5[nH]ncc5c4)c(-c4c(Cl)c(C)cc5[nH]ncc45)c3C)C2)C1 (single isomer, unassigned) [Example 12a] | 24 |
| C=CC(=O)N1CC2(CC(n3nc(-c4ccc5[nH]ncc5c4)c(-c4c(Cl)c(C)cc5[nH]ncc45)c3C)C2)C1 (single isomer, unassigned) [Example 12b] | 6100 |
| C=CC(=O)N1CC2(CC(n3nc(-c4ccc(N5CCN(C)C5=O)cc4)c(-c4c(Cl)c(C)cc5[nH]ncc45)c3C)C2)C1 (single isomer, unassigned) [Example 13a] | 18 |
| C=CC(=O)N1CC2(CC(n3nc(-c4ccc(N5CCN(C)C5=O)cc4)c(-c4c(Cl)c(C)cc5[nH]ncc45)c3C)C2)C1 (single isomer, unassigned) [Example 13b] | 14800 |
| C=CC(=O)N1CC2(CC(n3nc(-c4ccc5c(cnn5CCN5CCOCC5)c4)c(-c4c(Cl)c(C)cc5[nH]ncc45)c3C)C2)C1 (single isomer, unassigned) [Example 17a] | 13 |
| C=CC(=O)N1CC2(CC(n3nc(-c4ccc5c(cnn5CCN5CCOCC5)c4)c(-c4c(Cl)c(C)cc5[nH]ncc45)c3C)C2)C1 (single isomer, unassigned) [Example 17b] | 14600 |
| C=CC(=O)N1CC2(CC(n3nc(-c4cccnc4)c(-c4c(Cl)ccc5[nH]ncc45)c3C)C2)C1 (single isomer, unassigned) [Example 19a] | 1900 |
| C=CC(=O)N1CC2(CC(n3nc(-c4cccnc4)c(-c4c(Cl)ccc5[nH]ncc45)c3C)C2)C1 (single isomer, unassigned) [Example 19b] | > 50000 |
| C=CC(=O)N1CC2(CC(n3nc(-c4cnc(N)c(F)c4)c(-c4c(Cl)c(C)cc5[nH]ncc45)c3C)C2)C1 (single isomer, unassigned) [Example 20a] | 148 |
| C=CC(=O)N1CC2(CC(n3nc(-c4cnc(N)c(F)c4)c(-c4c(Cl)c(C)cc5[nH]ncc45)c3C)C2)C1 (single isomer, unassigned) [Example 20b] | 12500 |
| C=CC(=O)N1CC2(CC(n3nc(-c4ccc5c(c4)CCN5C(C)=O)c(-c4c(Cl)c(C)cc5[nH]ncc45)c3C)C2)C1 (single isomer, unassigned) [Example 22a] | 23 |
| C=CC(=O)N1CC2(CC(n3nc(-c4ccc5c(c4)CCN5C(C)=O)c(-c4c(Cl)c(C)cc5[nH]ncc45)c3C)C2)C1 (single isomer, unassigned) [Example 22b] | > 50000 |
| C=CC(=O)N1CC2(CC(n3nc(-c4ccccc4)c(-c4c(Cl)c(C)cc5[nH]ncc45)c3C)C2)C1 (single isomer, unassigned) [Example 26a, 1-{6-[(4M)-4-(5-Chloro-6-methyl-1H-indazol-4-yl)-5-methyl-3-phenyl-1H-pyrazol-1-yl]-2-azaspiro[3.3]heptan-2-yl}prop-2-en-1-one] | 43 |
| C=CC(=O)N1CC2(CC(n3nc(-c4ccccc4)c(-c4c(Cl)c(C)cc5[nH]ncc45)c3C)C2)C1 (single isomer, unassigned) [Example 26b] | 45600 |

Results, then the molecule that gave them:

| IC50 [nM] | Compound |
| --- | --- |
| 1200 | C=CC(=O)N1CC2(CC(n3nc(-c4ccc(=O)n(C)c4)c(-c4c(Cl)c(C)cc5[nH]ncc45)c3C)C2)C1 (single isomer, unassigned) [Example 6a] |
| > 50000 | C=CC(=O)N1CC2(CC(n3nc(-c4ccc(=O)n(C)c4)c(-c4c(Cl)c(C)cc5[nH]ncc45)c3C)C2)C1 (single isomer, unassigned) [Example 6b] |
| 66 | C=CC(=O)N1CC2(CC(n3nc(-c4cnc5c(ccn5C)c4)c(-c4c(Cl)c(C)cc5[nH]ncc45)c3C)C2)C1 (single isomer, unassigned) [Example 8a] |
| 2900 | C=CC(=O)N1CC2(CC(n3nc(-c4cnc5c(ccn5C)c4)c(-c4c(Cl)c(C)cc5[nH]ncc45)c3C)C2)C1 (single isomer, unassigned) [Example 8b] |
| 973 | C=CC(=O)N1CC2(CC(n3nc(-c4ccc(C#N)nc4)c(-c4c(Cl)c(C)cc5[nH]ncc45)c3C)C2)C1 (single isomer, unassigned) [Example 11a] |
| > 50000 | C=CC(=O)N1CC2(CC(n3nc(-c4ccc(C#N)nc4)c(-c4c(Cl)c(C)cc5[nH]ncc45)c3C)C2)C1 (single isomer, unassigned) [Example 11b] |
| 16 | C=CC(=O)N1CC2(CC(n3nc(-c4ccc5c(cnn5CCN(C)C)c4)c(-c4c(Cl)c(C)cc5[nH]ncc45)c3C)C2)C1 (single isomer, unassigned) [Example 15a] |
| 4800 | C=CC(=O)N1CC2(CC(n3nc(-c4ccc5c(cnn5CCN(C)C)c4)c(-c4c(Cl)c(C)cc5[nH]ncc45)c3C)C2)C1 (single isomer, unassigned) [Example 15b] |
| 11 | C=CC(=O)N1CC2(CC(n3nc(-c4ccc5nn(CCN(C)C)cc5c4)c(-c4c(Cl)c(C)cc5[nH]ncc45)c3C)C2)C1 (single isomer, unassigned) [Example 16a] |
| 23400 | C=CC(=O)N1CC2(CC(n3nc(-c4ccc5nn(CCN(C)C)cc5c4)c(-c4c(Cl)c(C)cc5[nH]ncc45)c3C)C2)C1 (single isomer, unassigned) [Example 16b] |
| 60 | C=CC(=O)N1CC2(CC(n3nc(-c4ccc5c(c4)CN(C)C(=O)C5)c(-c4c(Cl)c(C)cc5[nH]ncc45)c3C)C2)C1 (single isomer, unassigned) [Example 21a] |
| 15000 | C=CC(=O)N1CC2(CC(n3nc(-c4ccc5c(c4)CN(C)C(=O)C5)c(-c4c(Cl)c(C)cc5[nH]ncc45)c3C)C2)C1 (single isomer, unassigned) [Example 21b] |
| 564 | C=CC(=O)N1CC2(CC(n3nc(-c4ccc5ncnn5c4)c(-c4c(Cl)c(C)cc5[nH]ncc45)c3C)C2)C1 (single isomer, unassigned) [Example 23a] |
| 13900 | C=CC(=O)N1CC2(CC(n3nc(-c4ccc5ncnn5c4)c(-c4c(Cl)c(C)cc5[nH]ncc45)c3C)C2)C1 (single isomer, unassigned) [Example 23b] |
| 71 | C=CC(=O)N1CC2(CC(n3nc(-c4ccc5c(c4)CC(=O)N5C)c(-c4c(Cl)c(C)cc5[nH]ncc45)c3C)C2)C1 (single isomer, unassigned) [Example 24a] |
| > 50000 | C=CC(=O)N1CC2(CC(n3nc(-c4ccc5c(c4)CC(=O)N5C)c(-c4c(Cl)c(C)cc5[nH]ncc45)c3C)C2)C1 (single isomer, unassigned) [Example 24b] |
| 41 | C=CC(=O)N1CC2(CC(n3nc(-c4ccc5cnccc5c4)c(-c4c(Cl)c(C)cc5[nH]ncc45)c3C)C2)C1 (single isomer, unassigned) [Example 25a] |
| 7800 | C=CC(=O)N1CC2(CC(n3nc(-c4ccc5cnccc5c4)c(-c4c(Cl)c(C)cc5[nH]ncc45)c3C)C2)C1 (single isomer, unassigned) [Example 25b] |
